The results in this text go back to patent US5077293A, “1-indolyalkyl-4-(alkoxypyrimidinyl)piperazines” (Bristol-Myers Squibb Co., priority 1990, dated 1991).

SMILES strings stand for the structures.

The assay concerns serotonin uptake. Description: Inhibition of serotonin uptake (in vitro): inhibition of synaptosomal reuptake of tritiated serotonin. It counts as biochemical. How it is done: Determination of endogenous monoaminergic re-uptake inhibition values both for serotonin and norepinephrine was accomplished using test methods described by P. Skolnick, et al., Br. J. Pharmacology (1985), 86, pp. 637-644; with only minor modifications. In vitro IC50 (nM) test values were determined for representative compounds of Formula I based on their inhibition of synaptosomal reuptake of tritiated serotonin. Test data IC50 values lower than 500 nM are considered to reflect activity as an inhibitor of serotonin reuptake. Compounds with Ic50 values lower than 100 nM comprise preferred compounds.

What is called IC50 is the midpoint of a concentration-inhibition curve. The low end stands for greater potency in that assay, the high end for weaker potency in that assay. The compound `COc1cncnc1N1CCN(CCCc2c[nH]c3ccc(F)cc23)C(C)C1` (stereo not shown) [Example 23, 3-[3-[4-(5-Methoxy-4-pyrimidinyl)-2-methyl-1-piperazinyl]propyl]-5-fluoroindole] displayed an IC50 of 0.03 nM. The same measure for `COc1cncnc1N1CCN(CCCc2c[nH]c3ccc(F)cc23)CC1` [Example 24, 3-[3-[4-(5-Methoxy-4-pyrimidinyl)-1-piperazinl]propyl]-5-fluoroindole]: 0.3 nM; for `COc1cncnc1N1CCN(CCCc2c[nH]c3cc(F)ccc23)C(C)C1` (stereo not shown) [Example 25, 3-[3-[4-(5-Methoxy-4-pyrimidinyl)-2-methyl-1-pioerazinyl]-propyl]-6-fluoroindole]: 3.7 nM; for `CCOc1cncnc1N1CCN(CCCc2c[nH]c3ccccc23)CC1` [Example 27]: 6.35 nM.

For `COc1cncnc1N1CCN(CCCc2c[nH]c3ccccc23)CC1` [Example 28], it took 4.3 nM to reach half-maximal inhibition (IC50). This IC50 and that of the compound before are within 1.5-fold of each other.

`COc1cncnc1N1CCN(CCCc2c[nH]c3ccc(Cl)cc23)CC1` [Example 29]: the IC50 was 2.9 nM.

`COc1cncnc1N1CCN(CCCc2c[nH]c3cc(F)c(F)cc23)C(C)C1` (stereo not shown) [Example 30]: the concentration for half-maximal inhibition (IC50) is 1.46 nM.

On to `COc1cncnc1N1CCN(CCc2c[nH]c3ccc(F)cc23)CC1` [Example 31], for which half-maximal inhibition (IC50) required 0.92 nM. As for `COc1cncnc1N1CCN(CCCc2c[nH]c3ccc(Cl)cc23)C(C)C1` (stereo not shown) [Example 32], the half-maximal inhibitory concentration (IC50) is 2.1 nM. This IC50 lies about 2.3-fold higher than the previous one.

In the case of `CCC1CN(c2ncncc2OC)CCN1CCCc1c[nH]c2ccccc12` (stereo not shown) [Example 33], it took 2.64 nM to reach half-maximal inhibition (IC50).

For `COc1cncnc1N1CCN(CCc2c[nH]c3cc(F)c(F)cc23)CC1` [Example 34], inhibition was half-maximal at 3.1 nM (IC50). The same measure for `COc1cncnc1N1CCN(CCc2c[nH]c3ccc(F)cc23)C(C)C1` (stereo not shown) [Example 35]: 3.1 nM; for `COc1cncnc1N1CCN(CCCc2cn(C)c3ccccc23)C(C)C1` (stereo not shown) [Example 36]: 4.7 nM; for `COc1cc(N2CCN(CCCc3c[nH]c4ccccc34)CC2)ncn1` [Example 37]: 5.85 nM. The same measure for `CCOc1cncnc1N1CCN(CCCc2c[nH]c3ccccc23)C(C)C1` (stereo not shown) [Example 38]: 13.4 nM. The same measure for `COc1cc(N2CCN(CCCc3c[nH]c4ccccc34)C(C)C2)ncn1` (stereo not shown) [Example 39]: 9.3 nM.
